Target: T1, TLR3 (Homo sapiens, UniProt O15455)
T1 construct: host or cells: HEK-Blue (HEK293) TLR3 reporter cells
T1 sequence (O15455 24-904): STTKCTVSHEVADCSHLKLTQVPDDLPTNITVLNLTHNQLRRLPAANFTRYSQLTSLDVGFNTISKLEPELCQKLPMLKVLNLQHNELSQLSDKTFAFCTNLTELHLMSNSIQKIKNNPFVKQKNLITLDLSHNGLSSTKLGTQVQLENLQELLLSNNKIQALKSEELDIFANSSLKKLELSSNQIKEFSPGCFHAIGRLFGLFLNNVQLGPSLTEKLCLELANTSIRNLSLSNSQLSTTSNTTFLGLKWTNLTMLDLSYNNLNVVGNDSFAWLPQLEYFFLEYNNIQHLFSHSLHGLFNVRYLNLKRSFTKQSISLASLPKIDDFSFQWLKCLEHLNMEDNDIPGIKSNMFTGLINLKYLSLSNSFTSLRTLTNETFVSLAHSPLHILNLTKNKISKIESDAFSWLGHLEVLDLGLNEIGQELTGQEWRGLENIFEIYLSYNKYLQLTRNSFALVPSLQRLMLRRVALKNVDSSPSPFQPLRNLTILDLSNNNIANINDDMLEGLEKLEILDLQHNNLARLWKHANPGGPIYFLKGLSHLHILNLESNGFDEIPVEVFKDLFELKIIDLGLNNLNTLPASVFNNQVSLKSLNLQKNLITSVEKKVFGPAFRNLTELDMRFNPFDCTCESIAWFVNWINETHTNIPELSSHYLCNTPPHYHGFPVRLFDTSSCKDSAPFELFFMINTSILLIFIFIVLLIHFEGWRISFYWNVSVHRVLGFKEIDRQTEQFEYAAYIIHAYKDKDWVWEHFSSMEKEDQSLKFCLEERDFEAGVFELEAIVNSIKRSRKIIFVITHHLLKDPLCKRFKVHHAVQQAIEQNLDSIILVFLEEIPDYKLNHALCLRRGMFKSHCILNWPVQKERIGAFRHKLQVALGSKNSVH
Test: HEK-Blue TLR3 reporter cell SEAP assay, stimulated with murine plasma or liver total RNA
Assay type: cell-based
Conditions: plasma from DIO mice; inhibitor added 30 min before stimulus, or plasma digested with RNase I; FIG. 2F
Experimental: Stable TLR3-, 4-, 8-, and 9-overexpressing HEK-Blue and TLR3 knockout (KO) HEK-Dual Null cells (Invivogen) were propagated in high-glucose Dulbecco's modified Eagle's medium (DMEM) with 10% (v/v) fetal bovine serum (FBS, Corning) and maintained in growth medium supplemented with selective antibiotics following the manufacturer's instructions. RAW264.7 cells (ATCC) were cultured in high-glucose DMEM with 10% (v/v) FBS and then were subcultured by detachment with a cell scraper. C3H10T1/2 cells (ATCC) were cultured in high-glucose DMEM with 10% (v/v) FBS and 1× penicillin/streptomycin (Thermo Fisher). 3T3-L1 cells (ATCC) were cultivated in high-glucose DMEM with 10% (v/v) calf serum and 1× penicillin/streptomycin to maintain the undifferentiated status. At two days post-confluence, 3T3-L1 preadipocytes were induced to differentiate into adipocytes using an adipogenic cocktail containing 10 μg/mL insulin, 1 μM dexamethasone, and 0.5 mM 3-isobutyl-1-methylxanthine in 10% FBS DMEM. Two days post-induction, the cell medium was switched to the maintenance medium of 10% FBS DMEM supplemented with 2.5 μg/mL insulin.
HEK-Blue TLR3 cells (5×10^4 cells/well) were seeded and cultured overnight in 96-well plates in DMEM and then stimulated with murine plasma or liver total RNA. After 48 h, the activation of reporter cells was determined with a Quanti-blue medium (Invivogen). […]

| Molecule | activation of TLR3 by obese plasma |
| --- | --- |
| O=C(N[C@H](Cc1ccccc1)C(=O)O)c1sc2cc(F)ccc2c1Cl [TLR3 inhibitor] | blocked |
| ribonuclease I [RNase I] | blocked |
